ChEMBL document CHEMBL3580623, “Minor Structural Change to Tertiary Sulfonamide RORc Ligands Led to Opposite Mechanisms of Action” (ACS Med Chem Lett, 2015)

Experiments:
[1] = target: T1, Nuclear receptor ROR-gamma (Homo sapiens, UniProt P51449); assay type: functional
T1 sequence (P51449 whole entry): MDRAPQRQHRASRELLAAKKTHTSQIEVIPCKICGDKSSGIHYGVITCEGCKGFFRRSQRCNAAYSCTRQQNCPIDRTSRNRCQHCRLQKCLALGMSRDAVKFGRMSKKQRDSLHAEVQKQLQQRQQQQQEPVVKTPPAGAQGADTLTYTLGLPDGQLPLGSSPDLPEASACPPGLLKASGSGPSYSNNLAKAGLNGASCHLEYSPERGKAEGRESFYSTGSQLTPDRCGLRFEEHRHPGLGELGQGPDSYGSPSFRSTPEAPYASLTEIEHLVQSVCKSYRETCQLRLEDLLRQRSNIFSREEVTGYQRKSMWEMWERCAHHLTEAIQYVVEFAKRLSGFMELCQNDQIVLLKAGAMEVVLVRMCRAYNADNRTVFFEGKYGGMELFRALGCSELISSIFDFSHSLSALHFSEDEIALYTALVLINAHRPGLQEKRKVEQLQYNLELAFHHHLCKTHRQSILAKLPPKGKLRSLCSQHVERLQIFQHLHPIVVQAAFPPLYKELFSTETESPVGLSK

[2] = tested on: PBMC; experiment: Inhibition of IL17 production in human PBMC cells after 48 hrs by sandwich ELISA method; assay type: functional, cell-based
[3] = tested on: PBMC; experiment: Inhibition of IL17 production in human PBMC cells after 48 hrs by sandwich ELISA method relative to control; assay type: functional
[4] = tested on: PBMC; experiment: Effect on IFNgamma production in human PBMC cells after 48 hrs by sandwich ELISA method; assay type: functional, cell-based
[5] = tested on: PBMC; experiment: Cytotoxicity against human PBMC assessed as effect on cell physiology after 48 hrs by CellTiter-Glo assay; assay type: cell-based
[6] = target: T1, Nuclear receptor ROR-gamma; assay type: functional; remark: listed apart in the source
[7] = target: T1, Nuclear receptor ROR-gamma
Description: Displacement of [3H2]-25-hydroxycholesterol from N-terminal 6xHis-tagged human RORc ligand binding domain (241 to 486) expressed in bacterial expression system after 3 hrs by scintillation counting analysis

[8] = tested on: PBMC; experiment: Induction of IL17 production in human PBMC cells after 48 hrs by sandwich ELISA method; assay type: functional, cell-based
[9] = tested on: PBMC; experiment: Induction of IL17 production in human PBMC cells after 48 hrs by sandwich ELISA method relative to control; assay type: functional
[10] = target: T1, Nuclear receptor ROR-gamma; experiment: Inverse agonist activity at GAL4-fused human RORc expressed in HEK293T cells assessed as suppression of basal transcriptional activity after 20 hrs by dual-glo luciferase reporter gene assay; assay type: functional, cell-based, HEK-293T
[11] = target: T2, Nuclear receptor ROR-beta (Homo sapiens, UniProt Q92753); experiment: Inverse agonist activity at GAL4-fused human RORb expressed in HEK293T cells assessed as suppression of basal transcriptional activity after 20 hrs by dual-glo luciferase reporter gene assay; assay type: cell-based, HEK-293T
T2 sequence (Q92753 whole entry): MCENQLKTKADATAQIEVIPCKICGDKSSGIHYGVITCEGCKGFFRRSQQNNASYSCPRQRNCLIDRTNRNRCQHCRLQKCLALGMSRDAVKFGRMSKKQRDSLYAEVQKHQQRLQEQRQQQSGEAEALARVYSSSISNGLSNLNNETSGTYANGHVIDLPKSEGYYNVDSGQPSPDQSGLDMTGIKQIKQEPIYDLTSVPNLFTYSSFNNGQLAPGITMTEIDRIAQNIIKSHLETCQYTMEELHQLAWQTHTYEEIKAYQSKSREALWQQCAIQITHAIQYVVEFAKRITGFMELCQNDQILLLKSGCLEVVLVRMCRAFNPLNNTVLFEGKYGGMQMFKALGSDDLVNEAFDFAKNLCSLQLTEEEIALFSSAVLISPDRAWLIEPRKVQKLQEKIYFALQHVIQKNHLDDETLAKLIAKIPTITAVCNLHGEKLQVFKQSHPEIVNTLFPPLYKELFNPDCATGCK

[12] = target: T3, Nuclear receptor subfamily 1 group I member 2 (Homo sapiens, UniProt O75469); experiment: Agonist activity at GAL4-fused human PXR expressed in HEK293T cells assessed as activation of basal transcriptional activity after 20 hrs by dual-glo luciferase reporter gene assay; assay type: cell-based; details: hek-293t
T3 sequence (O75469 whole entry): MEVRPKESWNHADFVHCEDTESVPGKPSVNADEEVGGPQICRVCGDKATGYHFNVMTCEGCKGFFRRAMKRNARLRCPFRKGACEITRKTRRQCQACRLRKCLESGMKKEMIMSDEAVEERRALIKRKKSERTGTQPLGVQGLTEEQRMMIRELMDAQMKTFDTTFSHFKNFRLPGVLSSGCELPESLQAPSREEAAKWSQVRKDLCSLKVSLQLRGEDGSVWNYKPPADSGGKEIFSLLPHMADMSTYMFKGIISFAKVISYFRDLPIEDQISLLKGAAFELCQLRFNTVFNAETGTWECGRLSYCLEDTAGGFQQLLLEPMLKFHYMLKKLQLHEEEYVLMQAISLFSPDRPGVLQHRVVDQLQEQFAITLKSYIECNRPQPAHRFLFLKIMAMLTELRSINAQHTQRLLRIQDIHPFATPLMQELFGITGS

[13] = target: T4, Bile acid receptor (Homo sapiens, UniProt Q96RI1); experiment: Antagonist activity at GAL4-fused human FXR expressed in HEK293T cells assessed as inhibition of agonist-induced transcriptional activity after 20 hrs by dual-glo luciferase reporter gene assay
T4 sequence (Q96RI1 whole entry): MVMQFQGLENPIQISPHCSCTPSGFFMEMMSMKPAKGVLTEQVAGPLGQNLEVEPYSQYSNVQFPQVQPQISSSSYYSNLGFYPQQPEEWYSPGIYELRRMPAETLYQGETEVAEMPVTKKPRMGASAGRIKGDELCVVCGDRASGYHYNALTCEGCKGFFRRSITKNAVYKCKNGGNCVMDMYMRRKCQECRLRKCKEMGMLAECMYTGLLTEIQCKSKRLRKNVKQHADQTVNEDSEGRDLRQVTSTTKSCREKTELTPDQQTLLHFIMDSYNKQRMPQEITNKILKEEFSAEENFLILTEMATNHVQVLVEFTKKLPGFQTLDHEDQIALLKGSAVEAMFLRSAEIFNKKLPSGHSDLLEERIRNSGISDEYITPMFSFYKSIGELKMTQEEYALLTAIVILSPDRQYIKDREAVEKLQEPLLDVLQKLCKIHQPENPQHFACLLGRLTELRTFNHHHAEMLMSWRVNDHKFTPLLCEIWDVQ

[14] = target: T5, Oxysterols receptor LXR-alpha (Homo sapiens, UniProt Q13133); experiment: Antagonist activity at GAL4-fused human LXRalpha expressed in HEK293T cells assessed as inhibition of agonist-induced transcriptional activity after 20 hrs by dual-glo luciferase reporter gene assay
T5 sequence (Q13133 whole entry): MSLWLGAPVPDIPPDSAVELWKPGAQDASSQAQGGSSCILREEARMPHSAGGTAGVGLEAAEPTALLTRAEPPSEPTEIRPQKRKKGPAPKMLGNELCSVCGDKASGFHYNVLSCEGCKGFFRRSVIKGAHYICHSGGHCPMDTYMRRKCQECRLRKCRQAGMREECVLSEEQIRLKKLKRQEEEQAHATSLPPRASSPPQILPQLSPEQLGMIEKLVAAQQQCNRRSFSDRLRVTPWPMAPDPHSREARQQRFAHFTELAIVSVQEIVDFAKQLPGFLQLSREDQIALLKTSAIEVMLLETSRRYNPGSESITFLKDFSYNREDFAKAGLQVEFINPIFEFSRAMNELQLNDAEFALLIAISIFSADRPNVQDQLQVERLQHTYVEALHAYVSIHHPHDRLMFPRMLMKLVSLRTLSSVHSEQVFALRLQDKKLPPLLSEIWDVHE

EC50 [1] [nM] | EC50 [6] [nM] | Compound | further results
4 | – | CC(=O)N1CCN(c2ccc(CN(C3CCC3)S(=O)(=O)Cc3ccccc3Cl)c(F)c2)CC1 | –
160 | – | CC(=O)N1CCN(c2ccc(CN(C3CCC3)S(=O)(=O)c3ccc(OC(F)(F)F)cc3)c(F)c2)CC1 | –
9 | – | CC(=O)N1CCN(c2ccc(CN(C3CCC3)S(=O)(=O)Cc3cccc(Cl)c3)c(F)c2)CC1 | –
10 | – | CC(=O)N1CCN(c2ccc(CN(C3CCC3)S(=O)(=O)Cc3cccc(F)c3)c(F)c2)CC1 | –
40 | – | CC(=O)N1CCN(c2ccc(CN(C3CCC3)S(=O)(=O)Cc3cc(Cl)cc(Cl)c3)c(F)c2)CC1 | –
11 | – | CC(=O)N1CCN(c2ccc(CN(C3CCC3)S(=O)(=O)Cc3ccccc3)c(F)c2)CC1 | EC50 [2]: 350 nM; Efficacy [3]: -79%; EC50 [4]: > 10000 nM; EC50 [5]: > 20000 nM
– | 50 | CC(=O)N1CCN(c2ccc(CN(C3CCC3)S(=O)(=O)c3cccc(Cl)c3)c(F)c2)CC1 | –
33 | – | CC(=O)N1CCN(c2ccc(CN(C3CCC3)S(=O)(=O)Cc3ccc(Cl)cc3)c(F)c2)CC1 | IC50 [7]: 37 nM
190 | – | CC(=O)N1CCN(c2ccc(CN(C3CCC3)S(=O)(=O)c3ccc(Cl)cc3)c(F)c2)CC1 | –
– | 63 | CC(=O)N1CCN(c2ccc(CN(C3CCC3)S(=O)(=O)c3ccccc3F)c(F)c2)CC1 | EC50 [8]: 800 nM; Efficacy [9]: 71%; EC50 [4]: > 10000 nM; EC50 [5]: > 20000 nM
– | 26 | COc1cccc(S(=O)(=O)N(Cc2ccc(N3CCN(C(C)=O)CC3)cc2F)C2CCC2)c1 | –
– | 69 | CC(=O)N1CCN(c2ccc(CN(C3CCC3)S(=O)(=O)c3ccccc3)c(F)c2)CC1 | EC50 [8]: 780 nM; Efficacy [9]: 77%; EC50 [4]: > 10000 nM; EC50 [5]: > 20000 nM
7 | – | CC(=O)N1CCN(c2ccc(CN(C3CCC3)S(=O)(=O)Cc3ccc(F)cc3)c(F)c2)CC1 | –
– | 41 | CC(=O)N1CCN(c2ccc(CN(C3CCC3)S(=O)(=O)c3cccc(F)c3)c(F)c2)CC1 | –
3 | – | CC(=O)N1CCN(c2ccc(CN(C3CCC3)S(=O)(=O)Cc3ccccc3F)c(F)c2)CC1 | EC50 [2]: 320 nM; Efficacy [3]: -72%; EC50 [4]: > 10000 nM; EC50 [5]: > 20000 nM; EC50 [10]: 15 nM; EC50 [11]: 2700 nM; Activity [12]: Not Active; EC50 [13]: 6100 nM; EC50 [14]: 9200 nM
150 | – | CC(=O)N1CCN(c2ccc(CN(C3CCC3)S(=O)(=O)c3ccc(OC(F)F)cc3)c(F)c2)CC1 | IC50 [7]: 31 nM
300 | – | CC(=O)N1CCN(c2ccc(CN(C3CCC3)S(=O)(=O)c3ccc(C(F)(F)F)cc3)c(F)c2)CC1 | –
3300 | – | COc1ccc(S(=O)(=O)N(Cc2ccc(N3CCN(C(C)=O)CC3)cc2F)C2CCC2)cc1 | –
– | 14 | CC(=O)N1CCN(c2ccc(CN(C3CCC3)S(=O)(=O)c3cc(F)cc(F)c3)c(F)c2)CC1 | –
– | 6 | CC(=O)N1CCN(c2ccc(CN(C3CCC3)S(=O)(=O)c3cc(Cl)cc(Cl)c3)c(F)c2)CC1 | –
120 | – | CC(=O)N1CCN(c2ccc(CN(C3CCC3)S(=O)(=O)c3ccc(C(C)(C)C)cc3)c(F)c2)CC1 | –
220 | – | CC(=O)N1CCN(c2ccc(CN(C3CCC3)S(=O)(=O)c3ccc(Cl)cc3Cl)c(F)c2)CC1 | –
> 10000 | – | CC(=O)N1CCN(c2ccc(CN(C3CCC3)S(=O)(=O)c3ccc(F)cc3)c(F)c2)CC1 | –
– | 47 | CC(=O)N1CCN(c2ccc(CN(C3CCC3)S(=O)(=O)c3ccccc3Cl)c(F)c2)CC1 | –
310 | – | CC(=O)N1CCN(c2ccc(CN(C3CCC3)S(=O)(=O)CCc3ccccc3)c(F)c2)CC1 | –
